Reference: patent US9725416B2, “Ethynyl derivatives” (Hoffmann-La Roche Inc., priority 2014, dated 2017)

Molecular target: T1, human mGlu4 receptor (Homo sapiens, UniProt Q14833)
T1 construct: expressed in transfected cells; host or cells: HEK-293 (monoclonal, stably transfected)
Test: Ca2+ mobilization in vitro assay on recombinant human mGlu4 expressed in HEK293 cells (mGlu4 PAM)
Format: cell-based
Conditions: for Emax: HEK293, maximal response in % of the maximal stimulatory effect obtained with saturating concentrations of L-AP4, read-out: Eff. (%); for EC50: HEK-293 cells, Ca2+ mobilization, L-AP4 added at EC20
Description: Determination of EC50 Values Using a Ca2+ mobilization in vitro Assay on Recombinant Human mGlu4 Expressed in HEK293 cells:
A monoclonal HEK-293 cell line stably transfected with a cDNA encoding for the human mGlu4 receptor was generated; for the work with mGlu4 Positive Allosteric Modulators (PAMs), a cell line with low receptor expression levels and low constitutive receptor activity was selected to allow the differentiation of agonistic versus PAM activity. Cells were cultured according to standard protocols (Freshney, 2000) in Dulbecco's Modified Eagle Medium with high glucose supplemented with 1 mM glutamine, 10% (vol/vol) heat-inactivated bovine calf serum, Penicillin/Streptomycin, 50 μg/ml hygromycin and 15 μg/ml blasticidin (all cell culture reagents and antibiotics from Invitrogen, Basel, Switzerland).
About 24 hrs before an experiment, 5×10^4 cells/well were seeded in poly-D-lysine coated, black/clear-bottomed 96-well plates. The cells were loaded with 2.5 μM Fluo-4AM in loading buffer (1×HBSS, 20 mM HEPES) for 1 hr at 37° C. and washed five times with loading buffer. The cells were transferred into a Functional Drug Screening System 7000 (Hamamatsu, Paris, France), and 11 half logarithmic serial dilutions of test compound at 37° C. were added and the cells were incubated for 10-30 min. with on-line recording of fluorescence. Following this pre-incubation step, the agonist (2S)-2-amino-4-phosphonobutanoic acid (L-AP4) was added to the cells at a concentration corresponding to EC20 with on-line recording of fluorescence; in order to account for day-to-day variations in the responsiveness of cells, the EC20 of L-AP4 was determined immediately ahead of each experiment by recording of a full dose-response curve of L-AP4.
Responses were measured as peak increase in fluorescence minus basal (i.e. fluorescence without addition of L-AP4), normalized to the maximal stimulatory effect obtained with saturating concentrations of L-AP4. Graphs were plotted with the % maximal stimulatory using XLfit, a curve fitting program that iteratively plots the data using Levenburg Marquardt algorithm. The single site competition analysis equation used was y=A+((B−A)/(1+((x/C)D))), where y is the % maximal stimulatory effect, A is the minimum y, B is the maximum y, C is the EC50, x is the log 10 of the concentration of the competing compound and D is the slope of the curve (the Hill Coefficient). From these curves the EC50 (drug concentration at which 50% of the maximal receptor activation was achieved), the Hill coefficient as well as the maximal response in % of the maximal stimulatory effect obtained with saturating concentrations of L-AP4 were calculated (see FIG. 1).
A depression of the signal observed after addition of the EC20 concentration of L-AP4was indicative of an inhibitory activity of the test compound.

T1 sequence (Q14833 33-912): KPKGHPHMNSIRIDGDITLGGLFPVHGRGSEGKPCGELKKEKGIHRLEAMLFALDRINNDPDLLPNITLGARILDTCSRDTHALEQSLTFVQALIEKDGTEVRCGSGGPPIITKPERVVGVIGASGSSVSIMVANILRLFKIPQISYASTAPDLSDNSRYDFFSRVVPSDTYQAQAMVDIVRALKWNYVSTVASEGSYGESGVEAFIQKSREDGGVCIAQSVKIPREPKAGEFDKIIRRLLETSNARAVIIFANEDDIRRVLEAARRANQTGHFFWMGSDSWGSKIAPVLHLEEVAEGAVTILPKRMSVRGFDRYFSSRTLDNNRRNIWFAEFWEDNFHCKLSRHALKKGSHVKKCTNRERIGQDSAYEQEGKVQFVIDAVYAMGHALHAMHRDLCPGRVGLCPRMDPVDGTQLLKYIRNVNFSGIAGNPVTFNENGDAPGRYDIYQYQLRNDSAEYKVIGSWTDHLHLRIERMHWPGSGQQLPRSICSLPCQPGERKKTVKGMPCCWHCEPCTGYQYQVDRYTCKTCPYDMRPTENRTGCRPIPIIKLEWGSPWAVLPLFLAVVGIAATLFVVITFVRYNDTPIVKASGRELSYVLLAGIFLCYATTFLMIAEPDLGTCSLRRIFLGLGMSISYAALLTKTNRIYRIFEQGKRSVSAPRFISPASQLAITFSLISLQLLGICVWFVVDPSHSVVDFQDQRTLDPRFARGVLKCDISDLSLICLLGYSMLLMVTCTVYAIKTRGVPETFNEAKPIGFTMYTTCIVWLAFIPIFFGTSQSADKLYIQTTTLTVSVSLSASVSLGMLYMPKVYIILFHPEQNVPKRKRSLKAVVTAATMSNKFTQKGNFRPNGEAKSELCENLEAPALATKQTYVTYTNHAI

Row | Compound | Emax [%] | EC50 [nM]
1 | CC12CC(=O)N(c3c(F)cc(C#Cc4ccccc4)cc3F)C(=O)N1CCNC2=O (racemic) [Example 25, (9aRS)-7-[2,6-Difluoro-4-(2-phenylethynyl)phenyl]-9a-methyl-2,3,4,9-tetrahydropyrazino[1,2-c]pyrimidine-1,6,8-trione] | 105 | 83
2 | CN1C(=O)N(c2c(F)cc(C#Cc3ccccc3)cc2F)C(=O)C[C@@]1(C)c1cccnn1 [Example 58, (6S)-3-[2,6-Difluoro-4-(2-phenylethynyl)phenyl]-1,6-dimethyl-6-pyridazin-3-yl-hexahydropyrimidine-2,4-dione] | 99 | 49
3 | CN1C(=O)N(c2ncc(C#Cc3ccccc3)cc2Cl)C(=O)CC1(C)c1ccccc1 (racemic) [Example 32, (6RS)-3-[3-Chloro-5-(2-phenylethynyl)-2-pyridyl]-1,6-dimethyl-6-phenyl-hexahydropyrimidine-2,4-dione] | 103 | 155
4 | CN1C(=O)N(c2ccc(C#Cc3ccccc3)cc2)C(=O)CC1(C)c1ccccc1 (racemic) [Example 24, (6RS)-1,6-Dimethyl-6-phenyl-3-[4-(2-phenylethynyl)phenyl]hexahydropyrimidine-2,4-dione] | 126 | 254
5 | CCn1cc([C@]2(C)CC(=O)N(c3c(F)cc(C#Cc4ccccc4)cc3F)C(=O)N2C)ccc1=O [Example 67, (6S)-3-[2,6-Difluoro-4-(2-phenylethynyl)phenyl]-6-(1-ethyl-6-oxo-3-pyridyl)-1,6-dimethyl-hexahydropyrimidine-2,4-dione] | 106 | 56
6 | COc1ccc([C@]2(C)CC(=O)N(c3c(F)cc(C#Cc4ccccc4)cc3F)C(=O)N2C)cn1 [Example 63, (6S)-3-[2,6-Difluoro-4-(2-phenylethynyl)phenyl]-6-(6-methoxy-3-pyridyl)-1,6-dimethyl-hexahydropyrimidine-2,4-dione] | 109 | 42
7 | CN1C(=O)N(c2c(F)cc(C#Cc3ccccc3)cc2F)C(=O)CC12CCCC2 [Example 6, 8-[2,6-Difluoro-4-(2-phenylethynyl)phenyl]-6-methyl-6,8-diazaspiro[4.5]decane-7,9-dione] | 142 | 72
8 | CN1C(=O)N(c2c(F)cc(C#Cc3ccccc3)cc2F)C(=O)C[C@@]1(C)c1ccc(=O)n(C)n1 [Example 83, (6S)-3-[2,6-Difluoro-4-(2-phenylethynyl)phenyl]-1,6-dimethyl-6-(1-methyl-6-oxo-pyridazin-3-yl)hexahydropyrimidine-2,4-dione] | 116 | 42
9 | COc1ccc([C@]2(C)CC(=O)N(c3c(F)cc(C#Cc4ccccc4)cc3F)C(=O)N2C)nn1 [Example 81, (6S)-3-[2,6-Difluoro-4-(2-phenylethynyl)phenyl]-6-(6-methoxypyridazin-3-yl)-1,6-dimethyl-hexahydropyrimidine-2,4-dione] | 100 | 28
10 | CN1C(=O)N(c2ccc(C#Cc3ccccc3)cn2)C(=O)CC1(C)c1ccccc1 (racemic) [Example 23, (6RS)-1,6-Dimethyl-6-phenyl-3-[5-(2-phenylethynyl)-2-pyridyl]hexahydropyrimidine-2,4-dione] | 126 | 947
11 | CCN1C(=O)N(c2c(F)cc(C#Cc3cccnc3)cc2Cl)C(=O)CC1(C)C [Example 10, 3-[2-Chloro-6-fluoro-4-[2-(3-pyridyl)ethynyl]phenyl]-1-ethyl-6,6-dimethyl-hexahydropyrimidine-2,4-dione] | 169 | 256
12 | CCC1(CC)CC(=O)N(c2c(F)cc(C#Cc3ccccc3)cc2F)C(=O)N1 [Example 21, 3-[2,6-Difluoro-4-(2-phenylethynyl)phenyl]-6,6-diethyl-hexahydropyrimidine-2,4-dione] | 106 | 145
13 | CN1CCN2C(=O)N(c3c(F)cc(C#Cc4ccccc4)cc3F)C(=O)CC2(C)C1=O (racemic) [Example 35, (9aRS)-7-[2,6-Difluoro-4-(2-phenylethynyl)phenyl]-2,9a-dimethyl-4,9-dihydro-3H-pyrazino[1,2-c]pyrimidine-1,6,8-trione] | 131 | 158
14 | CC(C)N1CCN2C(=O)N(c3c(F)cc(C#Cc4ccccc4)cc3F)C(=O)CC2(C)C1=O (racemic) [Example 36, (9aRS)-7-[2,6-Difluoro-4-(2-phenylethynyl)phenyl]-2-isopropyl-9a-methyl-4,9-dihydro-3H-pyrazino[1,2-c]pyrimidine-1,6,8-trione] | 128 | 169
15 | CN1C(=O)N(c2c(F)cc(C#Cc3ccccc3)cc2F)C(=O)CC12CCOC2 (racemic) [Example 12, (5RS)-8-[2,6-Difluoro-4-(2-phenylethynyl)phenyl]-6-methyl-2-oxa-6,8-diazaspiro[4.5]decane-7,9-dione] | 115 | 260
16 | CN1C(=O)N(c2c(F)cc(C#Cc3ccccc3)cc2F)C(=O)CC12CCCOC2 (racemic) [Example 17, (6RS)-3-[2,6-Difluoro-4-(2-phenylethynyl)phenyl]-1-methyl-8-oxa-1,3-diazaspiro[5.5]undecane-2,4-dione] | 129 | 183
17 | CN1C(=O)N(c2c(F)cc(C#Cc3ccccc3)cc2F)C(=O)C[C@@]1(C)c1cncc(F)c1 [Example 59, (6S)-3-[2,6-Difluoro-4-(2-phenylethynyl)phenyl]-6-(5-fluoro-3-pyridyl)-1,6-dimethyl-hexahydropyrimidine-2,4-dione] | 89 | 75
18 | CN1C(=O)N(c2c(F)cc(C#Cc3ccccc3)cc2F)C(=O)C[C@@]1(C)c1ccc(=O)[nH]n1 [Example 82, (6S)-3-[2,6-Difluoro-4-(2-phenylethynyl)phenyl]-1,6-dimethyl-6-(6-oxo-1H-pyridazin-3-yl)hexahydropyrimidine-2,4-dione] | 115 | 18
19 | CC12CC(=O)N(c3c(F)cc(C#Cc4ccccc4)cc3F)C(=O)N1CCN(Cc1ccccc1)C2=O (racemic) [Example 37, (9aRS)-2-Benzyl-7-[2,6-difluoro-4-(2-phenylethynyl)phenyl]-9a-methyl-4,9-dihydro-3H-pyrazino[1,2-c]pyrimidine-1,6,8-trione] | 97 | 131
20 | CN1C(=O)N(c2c(F)cc(C#Cc3ccccc3)cc2F)C(=O)CC1(C)c1ccncc1 (racemic) [Example 28, (6RS)-3-[2,6-Difluoro-4-(2-phenylethynyl)phenyl]-1,6-dimethyl-6-(4-pyridyl)hexahydropyrimidine-2,4-dione] | 105 | 112
21 | CN1C(=O)N(c2ncc(C#Cc3ccccc3)cc2C(F)(F)F)C(=O)CC1(C)c1ccccc1 (racemic) [Example 46, (6RS)-1,6-Dimethyl-6-phenyl-3-[5-(2-phenylethynyl)-3-(trifluoromethyl)-2-pyridyl]hexahydropyrimidine-2,4-dione] | 105 | 116
22 | CN1C(=O)N(c2c(F)cc(C#Cc3ccccc3)cc2F)C(=O)C[C@@]1(C)c1ccn(C)c(=O)c1 [Example 75, (6S)-3-[2,6-Difluoro-4-(2-phenylethynyl)phenyl]-1,6-dimethyl-6-(1-methyl-2-oxo-4-pyridyl)hexahydropyrimidine-2,4-dione] | 108 | 55
23 | O=C1CC2COCCN2C(=O)N1c1c(F)cc(C#Cc2ccccc2)cc1F (racemic) [Example 8, (9aRS)-7-[2,6-Difluoro-4-(2-phenylethynyl)phenyl]-3,4,9,9a-tetrahydro-1H-pyrimido[6,1-c][1,4]oxazine-6,8-dione] | 107 | 144
24 | CN1C(=O)N(c2c(F)cc(C#Cc3ccccc3)cc2F)C(=O)C[C@@]1(C)c1cnc(=O)[nH]c1 [Example 80, (6S)-3-[2,6-Difluoro-4-(2-phenylethynyl)phenyl]-1,6-dimethyl-6-(2-oxo-1H-pyrimidin-5-yl)hexahydropyrimidine-2,4-dione] | 105 | 185
25 | CN1C(=O)N(c2c(F)cc(C#Cc3cccnc3)cc2Cl)C(=O)CC1(C)C [Example 9, 3-[2-Chloro-6-fluoro-4-[2-(3-pyridyl)ethynyl]phenyl]-1,6,6-trimethyl-hexahydropyrimidine-2,4-dione] | 110 | 429
